According to a compilation of properties of binary mixtures (doi:10.1021/jp071051m):

Test: xn = mol fraction of the nth substance listed
Conditions: 298.15 K, 101 kPa

CCCC[n+]1ccn(C)c1.O=C([O-])C(F)(F)F + CC#N
Conditions	electrical conductivity [S/m]	viscosity [mPa·s]
x2 = 0	0.455	52.9
x2 = 0.0798	0.562	42.7
x2 = 0.1769	0.699	31.7
x2 = 0.3539	1.05	17.4
x2 = 0.4443	1.32	12.1
x2 = 0.547	1.69	7.61
x2 = 0.6553	2.19	4.38
x2 = 0.7649	2.76	2.27
x2 = 0.8457	3.06	1.19
x2 = 0.8802	3.09	1.09

CCCC[n+]1ccn(C)c1.F[P-](F)(F)(F)(F)F + CC(C)=O
Conditions	electrical conductivity [S/m]	viscosity [mPa·s]
x2 = 0	0.157	260
x2 = 0.1006	0.256	148
x2 = 0.1935	0.389	89
x2 = 0.3033	0.612	48.4
x2 = 0.3988	0.89	27.4
x2 = 0.6016	1.81	7.36
x2 = 0.6992	2.38	3.76
x2 = 0.8433	3.11	1.34
x2 = 0.8853	3.12	1.02

ClCCl + CCCC[n+]1ccn(C)c1.F[P-](F)(F)(F)(F)F
Conditions	electrical conductivity [S/m]	viscosity [mPa·s]
x1 = 0.0753	0.213	180
x1 = 0.163	0.294	129
x1 = 0.3361	0.533	58.2
x1 = 0.5384	0.97	18.7
x1 = 0.6462	1.24	9.5
x1 = 0.738	1.43	5
x1 = 0.8242	1.42	2.57
x1 = 0.8678	1.3	1.82

CCCC[n+]1ccn(C)c1.F[P-](F)(F)(F)(F)F + CCOC(C)=O
Conditions	electrical conductivity [S/m]	viscosity [mPa·s]
x2 = 0	0.157	260
x2 = 0.0883	0.229	167
x2 = 0.1793	0.326	101
x2 = 0.4691	0.771	21
x2 = 0.5703	0.96	11.3
x2 = 0.6738	1.1	5.69
x2 = 0.8339	0.96	2.07

CCCC[n+]1ccn(C)c1.O=C([O-])C(F)(F)F + ClC(Cl)Cl
Conditions	electrical conductivity [S/m]	viscosity [mPa·s]
x2 = 0	0.455	52.9
x2 = 0.0918	0.507	46.4
x2 = 0.1815	0.558	40.4
x2 = 0.2793	0.618	33.7
x2 = 0.3861	0.692	25.9
x2 = 0.482	0.766	19.3
x2 = 0.5804	0.85	13
x2 = 0.6467	0.89	9.7
x2 = 0.6812	0.9	7.85
x2 = 0.729	0.89	6.06
x2 = 0.7847	0.826	4.02
x2 = 0.8677	0.603	2.02

CCCC[n+]1ccn(C)c1.F[P-](F)(F)(F)(F)F + ClCCl
x2 = 0
Conditions	electrical conductivity [S/m]	viscosity [mPa·s]
–	0.157	260

CCCC[n+]1ccn(C)c1.O=C([O-])C(F)(F)F + O
Conditions	electrical conductivity [S/m]	viscosity [mPa·s]
x2 = 0	0.455	52.9
x2 = 0.1093	0.543	46.3
x2 = 0.197	0.619	40.9
x2 = 0.2888	0.713	35.5
x2 = 0.396	0.88	29.2
x2 = 0.4921	1.07	23.8
x2 = 0.5897	1.34	18.7
x2 = 0.6918	1.72	13.6
x2 = 0.7927	2.38	9
x2 = 0.884	3.14	5.13
x2 = 0.9195	3.34	3.67

CCCC[n+]1ccn(C)c1.F[P-](F)(F)(F)(F)F + c1ccncc1
Conditions	electrical conductivity [S/m]	viscosity [mPa·s]
x2 = 0	0.157	260
x2 = 0.0964	0.222	161
x2 = 0.1929	0.308	102
x2 = 0.291	0.435	63.4
x2 = 0.3899	0.599	38
x2 = 0.5922	1.11	12.1
x2 = 0.6978	1.43	6.35
x2 = 0.7695	1.63	3.73
x2 = 0.8372	1.73	2.42
x2 = 0.8781	1.68	1.94
